Laboratory results reported in patent US5510368A, “N-benzyl-3-indoleacetic acids as antiinflammatory drugs” (priority 1995, dated 1996).
Counter-ions that a name gives are not always drawn.

Columns and labels:
cyclooxygenase-1 = cyclooxygenase-1 (Homo sapiens, UniProt P23219); assay: Inhibition of cyclooxygenase activity, whole cell cyclooxygenase assay (COX-1, U-937 cells, PGE2 by radioimmunoassay); assay type: cell-based; settings: human U-937 cells; PGE2 synthesis; 10 μM arachidonic acid
Rat paw edema = assay: Rat Paw Edema Assay (carrageenan); assay type: in vivo, Male Sprague-Dawley rats; settings: po, 1 h before subplantar carrageenan (500 μg per paw); paw volume at 3 h
Protocol: Male Sprague-Dawley rats (150-200 g) were fasted overnight and were given po either vehicle (1% methocel or 5% Tween 80) or a test compound. One hour later, a line was drawn using a permanent marker at the level above the ankle in one hind paw to define the area of the paw to be monitored. The paw volume (VO) was measured using a plethysmometer (Ugo-B asile, Italy) based on the principle of water displacement. The animals were then injected subplantarly with 50 μl of 1% carrageenan solution in saline (FMC Corp, Maine) into the paw using an insulin syringe with a 25-gauge needle (i.e. 500 μg carrageenan per paw). Three hours later, the paw is volume (V3) was measured and the increases in paw volume (V3 -VO) were calculated. The animals were sacrificed by CO2 aphyxiation and the absence or presence of stomach lesions scored. Data were compared with the vehicle-control values and percent inhibition calculated. […] All treatment groups were coded to eliminate observer bias.

cyclooxygenase-2 = molecular target: T1, cyclooxygenase-2 (Homo sapiens, UniProt P35354); assay: cell-based; settings: human osteosarcoma 143 cells; PGE2 synthesis; 10 μM arachidonic acid; read-out: COX-2 (IC50)
T1 sequence (P35354 18-604): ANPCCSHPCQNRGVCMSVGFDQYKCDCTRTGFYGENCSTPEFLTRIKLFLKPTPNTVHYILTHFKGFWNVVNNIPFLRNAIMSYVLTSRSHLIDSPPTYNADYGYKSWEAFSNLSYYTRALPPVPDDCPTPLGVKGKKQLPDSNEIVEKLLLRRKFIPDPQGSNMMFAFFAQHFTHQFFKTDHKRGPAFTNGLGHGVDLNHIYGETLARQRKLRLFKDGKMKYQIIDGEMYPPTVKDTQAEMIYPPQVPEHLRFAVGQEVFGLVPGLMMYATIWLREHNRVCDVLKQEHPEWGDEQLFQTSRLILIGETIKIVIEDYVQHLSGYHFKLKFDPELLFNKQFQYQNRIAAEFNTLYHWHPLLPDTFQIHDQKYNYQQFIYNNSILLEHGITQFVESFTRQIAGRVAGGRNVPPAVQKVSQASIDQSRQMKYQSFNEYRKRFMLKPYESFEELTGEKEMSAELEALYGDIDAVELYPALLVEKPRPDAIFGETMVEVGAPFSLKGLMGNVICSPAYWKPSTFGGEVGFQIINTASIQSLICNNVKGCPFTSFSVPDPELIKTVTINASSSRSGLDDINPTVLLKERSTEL
Protocol: Compounds were tested as inhibitors of cyclooxygenase activity in whole cell cyclooxygenase assays. Both of these assays measured prostaglandin E2 synthesis in response to arachidonic acid, using a radioimmunoassay. Cells used for these assays were human osteosarcoma 143 cells (which specifically express cyclooxygenase-2) and human U-937 cells (which specifically express cyclooxygenase-1 ). In these assays, 100% activity is defined as the difference between prostaglandin E2 synthesis in the absence and presence of arachidonate.
For cyclooxygenase assays, osteosarcoma cells are cultured in 1 mL of media in 24-well multidishes (Nunclon) until confluent (1-2×10^5 cells/well). U-937 cells are grown in spinner flasks and resuspended to a final density of 1.5×10^6 cells/mL in 24-well multidishes (Nunclon). Following washing and resuspension of osteosarcoma and U-937 cells in 1 mL of Hanks balanced salts solution (HBSS), 2 μL of a DMSO solution of test compound or DMSO vehicle is added, and samples gently mixed. All assays are performed in triplicate. Samples and then incubated for 5 or 15 minutes at 37° C., prior to the addition of arachidonic acid. Arachidonic acid (peroxide-free, Cayman Chemical) is prepared as a 10mM stock solution in ethanol and further diluted 10-fold in HBSS. An aliquot of 10 μL of this diluted solution is added to the cells to give a final arachidonic acid concentration of 10 μM. Control samples are incubated with ethanol vehicle instead of arachidonic acid. Samples are again gently mixed and incubated for a further 10 min. at 37° C. For osteosarcoma cells, reactions are then stopped by the addition of 100 μL of 1 N HCl with mixing and by the rapid removal of the solution from cell monolayers. For U-937 cells, reactions are stopped by the addition of 100 μL of 1N HCl, with mixing. Samples are then neutralized by the addition of 100 μL of 1N NaOH and PGE2 levels measured by radioimmunoassay.
In the assay, inhibition is determined by measuring the amount of prostaglandin E2 (PGE2) synthesized in the presence of arachidonic acid, cyclooxygenase-1 or cyclooxygenase-2 and a putative inhibitor. The IC50 values represent the concentration of putative inhibitor required to return PGE2 synthesis to 50% of that obtained as compared to the uninhibited control.

cyclooxygenase-1, sequence (P23219 24-599): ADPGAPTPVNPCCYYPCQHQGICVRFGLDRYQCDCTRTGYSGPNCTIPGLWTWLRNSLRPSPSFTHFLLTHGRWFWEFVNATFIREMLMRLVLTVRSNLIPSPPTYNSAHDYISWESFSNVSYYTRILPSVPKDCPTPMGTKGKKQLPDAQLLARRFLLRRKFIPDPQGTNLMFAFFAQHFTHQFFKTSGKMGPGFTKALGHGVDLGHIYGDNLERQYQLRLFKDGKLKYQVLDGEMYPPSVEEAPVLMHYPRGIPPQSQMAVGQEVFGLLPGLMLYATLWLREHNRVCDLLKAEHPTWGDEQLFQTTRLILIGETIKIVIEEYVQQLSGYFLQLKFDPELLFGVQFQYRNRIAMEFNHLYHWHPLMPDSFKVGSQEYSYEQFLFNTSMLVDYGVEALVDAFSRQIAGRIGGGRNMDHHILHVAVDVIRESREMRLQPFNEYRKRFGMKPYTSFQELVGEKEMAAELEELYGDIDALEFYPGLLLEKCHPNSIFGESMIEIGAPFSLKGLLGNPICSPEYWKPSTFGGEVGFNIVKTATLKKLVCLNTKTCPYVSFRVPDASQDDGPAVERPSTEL

Compound	IC50 (cyclooxygenase-1) [nM]	Rat paw edema (ED30) (Rat paw edema) [mg/kg]	IC50 (cyclooxygenase-2) [nM]
Cc1c([C@H](C)C(=O)O)c2cc(Br)ccc2n1Cc1ccc(Br)cc1 [Example 2, sodium salt]	1100	0.28	13
Cc1c([C@@H](C)C(=O)O)c2cc(Br)ccc2n1Cc1ccc(Br)cc1 [Example 3, (R)-(-)-2-(5-Bromo-1-(4-bromobenzyl)-2-methyl-1H-indol-3-yl)propionic acid, sodium salt]	32000	0.57	1
Cc1c(C(C)C(=O)[O-])c2cc(Br)ccc2n1Cc1ccc(Br)cc1.[Na+] (racemic) [sodium salt]	10000	–	1.9
Cc1c(C(C)C(=O)[O-])c2cc(Br)ccc2n1Cc1ccc(Br)cc1.[Na+] (racemic)	–	0.26	–
COc1ccc2c(c1)c(C(C)C(=O)O)c(C)n2Cc1ccc(Cl)cc1 (stereo not drawn) [MK-555, α-(1-p-chlorobenzyl-2-methyl-5-methoxy-3-indolyl)propionic acid, reference compound]	10000	3	10
